Source: patent publication US12668797B2, “Compositions and methods for treating chronic myelomonocytic leukemia” (H. Lee Moffitt Cancer Center and Research Institute, Inc., priority 2019, dated 2026)

Key:
[1] = test system: myelomonocytic leukemia cell lines; experiment: Apoptosis in myelomonocytic leukemia cell lines; type: cell-based, human
[2] = test system: human leukemic cells; experiment: Differentiation markers CD11b and CD14 by flow cytometry in human leukemic cells; type: cell-based; conditions: stimulated cells, MALAT1 depleted versus control cells
[3] = test system: THP-1 cells; experiment: Differentiation of THP-1 MALAT1 CRISPR KO cells (CD11b/CD14); type: cell-based, human; conditions: MALAT1 depleted THP-1 versus control; ATRA 1 μM for 96 h (FIG. 7C)
From the text: To confirm that MALAT1 depletion could induce differentiation in human models of leukemia, MALAT1's major transcriptional start site was deleted via CRISPR/Cas9 as previously described in several single cell derived clones of the THP-1 cell line. THP-1 cells were chosen because they were derived from a patient with acute monocytic leukemia, they harbor an NRAS mutation, and they had the highest levels of MALAT1 in our screen of myeloid cell lines.

[4] = test system: CMML patients; conditions: 10 CMML patients, 45mg/m^2 of ATRA daily; cited from earlier work
[5] = test system: THP-1 xenografts; experiment: THP-1 MALAT1 KO / WT xenografts treated with ATRA; type: in vivo, mice
From the text: Multiple MALAT1 depleted THP-1 leukemia cell line clones have been generated utilizing dual sgRNA-targeted CRISPR technology and partnered with IONIS pharmaceuticals to test clinical grade MALAT1 ASOs in a panel of cell lines. These reagents were used to evaluate the effects of MALAT1 depletion on the above cellular processes to include proliferation, cell cycle, and differentiation. […] Additionally, these models were used to test the impact of MALAT1 depletion on normal and leukemic stem cell self-renewal capacity as well as rigorously interrogated the numbers of hematopoietic stem and progenitor cells upon MALAT1 depletion. Leukemia human cell line xenograft models were used to test the in vivo consequence of MALAT1 depletion with the above CRISPR generated clones.
Differentiation syndrome is a common serious adverse event in human leukemia patients treated with differentiating agents. It is primarily characterized by an inflammatory reaction often a result of differentiated myeloid cells accumulating in target organs, especially the lungs.

[6] = test system: acute promyelocytic leukemia (APL); conditions: ATRA based therapy in APL; cited from earlier work
[7] = test system: NRAS^Q61R/+ and NRAS^Q61R/+/MALAT1^KO/KO transplanted mice; experiment: ATRA treatment of primary transplants from NRAS Q61R/+ GEM model of CMML; type: in vivo; conditions: ATRA intraperitoneally
From the text: To validate the differentiation effect in vivo primary transplants were generated from NRAS^Q61R/+/MALAT1^KO/KO and NRAS^Q61R/+ followed by treatment with ATRA. […] Differentiation syndrome is a treatable but potentially fatal complication of approved therapies which induce differentiation in myeloid neoplasms hallmarked by increases in myeloid cell adhesion, invasion, and ultimately lung infiltration. There was a higher proportion of terminally differentiated cells in the lungs of NRAS^Q61R/+/MALAT1^KO/KO mice compared to controls (FIG. 8B). Further, MALAT1 depleted THP-1 cells had increased adhesion and endothelial migration compared to controls consist with an increased potential for differentiation syndrome (FIG. 8C).

SMILES | dose-dependent apoptosis ([1]; ATRA alone) | apoptosis ([1]; ATRA in combination with MALAT1 depletion) | induction of apoptosis following ATRA treatment ([1]; FIG. 2, ATRA treatment) | differentiation markers CD11b and CD14 by flow cytometry upon stimulation [2] | response of differentiation markers [3] | patients who developed differentiation syndrome [4] | patients who succumbed to differentiation syndrome [4] | patients with improvement in transfusion requirements [4] | differentiation syndrome ([5]; ATRA treated MALAT1 KO NSG xenografts, FIG. 1) | survival of xenografted mice ([5]; MALAT1 depleted xenografts treated with ATRA, pilot experiment) | survival of xenografted mice ([5]; WT xenografts treated with ATRA) | cure rates [6] | differentiation markers (Gr-1/Mac-1) [7]
CC1=C(/C=C/C(C)=C/C=C/C(C)=C/C(=O)O)C(C)(C)CCC1 [ATRA, all-trans retinoic acid] | did not cause a robust dose-dependent apoptosis | induced apoptosis in a dose-dependent manner | minimal induction of apoptosis | enhanced | more robust response | 2 patients | 1 patients | four | evidence of differentiation syndrome | succumbed one-week post-ATRA therapy | remained unaffected | ~95% | statistically significant differences
CCCCCCCCCCCCCC(=O)O[C@@H]1[C@@H](C)[C@@]2(O)[C@@H](C=C(CO)C[C@]3(O)C(=O)C(C)=C[C@@H]23)[C@@H]2C(C)(C)[C@]12OC(C)=O [PMA, phorbol myristate acetate] | – | – | – | enhanced | more robust response | – | – | – | – | – | – | – | –
